This note sets out measurements from patent EP4696306A1, “ADENOSINE TRIPHOSPHATE SECRETION INHIBITOR, HEPATIC STELLATE CELL ACTIVATION INHIBITOR, HEPATIC STELLATE CELL DEACTIVATOR, HEPATIC FIBROSIS THERAPEUTIC AGENT, NON-ALCOHOLIC STEATOHEPATITIS THERAPEUTIC AGENT, PSORIASIS THERAPEUTIC AGENT, AND USE OF COMPOUND FOR PRODUCING ADENOSINE TRIPHOSPHATE …” (KURUME UNIVERSITY, priority 2023, dated 2024).

One assay relates to catecholamine transport. The experiment in a line: Catecholamine (3H-dopamine) transport in chromaffin granule membranes. In kind it is biochemical, bovine. As to conditions: MANT-ATP; N = 3. As to the method:
(§1) Chromaffin granule membranes were prepared from adrenal glands collected from slaughtered cattle according to Reference A (Nathan Nelson et al., 1988, Chromaffin Granule Proton Pump, Methods in Enzymology, 157, 619-633). Chromaffin granule membranes prepared by sucrose density gradient centrifugation were suspended in 2 ml of SME buffer (20 mM MOPS-tris (pH 7.0), 0.3 M sucrose, 5 mM EDTA, 10 µg/ml leupeptin, and 10 µg/ml pepstatin) + 25% glycerol, and the resulting suspension was aliquoted and stored at -80°C. Under these conditions, the ATP transport activity, the V-ATPase activity, and the catecholamine transport activity remain fully active for at least one year.
A catecholamine transport inhibition experiment was carried out in the same manner as the ATP transport experiment except that the experiment used a measurement liquid containing 20 mM MOPS-tris (pH 7.0), 0.1 M sucrose, 0.1 M potassium chloride, 5 mM magnesium acetate, and about 5 µg of chromaffin granule membranes. To 0.5 ml of the measurement liquid, 2 mM ATP was added, and the resulting mixture was incubated at 30°C for about 5 minutes, followed by addition of^3 [H]-dopamine thereto to a final concentration of 10 µM. After further incubation at 30°C for 15 minutes, 0.2 ml of the reaction liquid was subjected to suction filtration through a Millipore MCE membrane filter with a pore size of 0.45 µm, and the radioactivity on the filter was measured (N = 3). The substrate, ^3[H]-dopamine, was prepared by mixing 3,4-[RING-2,5,6-^3H]dihydroxyphenylethylamine (dopamine) (30 Ci/mmol) (manufactured by New England Nuclear) with dopamine hydrochloride (manufactured by LKT Laboratories) such that a final concentration of 0.1 mM was achieved during the use.
(§2) Chromaffin granule membrane vesicles were prepared in the same manner as in Example 5, and uptake of radiolabeled ATP into the vesicles was measured. Transport activity of catecholamine (dopamine) and ATP-dependent proton transport by V-ATPase were also measured in the same manner as in Example 5.

For assay [1], the system named is ATP transport activity in isolated chromaffin granule membranes. The experiment in a line: ATP transport (3H-ATP uptake) in chromaffin granule membrane vesicles. It is filed as biochemical, bovine. As to conditions: N = 3. As to the method:
as §1
An ATP transport inhibition experiment for the chromaffin granule membrane was carried out according to Reference B (Yoshinori Moriyama et al., 2022, Is the vesicular nucleotide transporter a molecular target of eicosapentaenoic acid?, Frontiers in Pharmacology, 103389). About 20 µg of chromaffin granule membranes were added to 0.5 ml of measurement buffer (20 mM MOPS-tris (pH 7.0), 0.3 M sucrose, 5 mM potassium chloride, 5 mM magnesium acetate, 5 mM creatine phosphate, 10 units of creatine kinase, and 1 mM ^3[H]-ATP [15 KBq/assay]), followed by incubation at 30°C for 1 hour. Through a Millipore MCE membrane filter with a pore size 0.45 µm, 0.2 ml of the reaction liquid was filtered by suction. Thereafter, the filter was washed with 10 ml of 20 mM MOPS-tris (pH 7.0), 0.3 M sucrose, 5 mM potassium chloride, and 5 mM magnesium acetate, and dissolved in 10 ml of Clear-sol II (manufactured by Nacalai Tesque, Inc.). The radioactivity was then measured using a liquid scintillation counter (N = 3).
The reaction was initiated by adding 50 mM ^3[H]-ATP to a final concentration of 1 mM. The 50 mM ^3[H]-ATP was prepared by mixing an ATP-tris solution (manufactured by Sigma-Aldrich) with [2,8-^3H] adenosine triphosphate tetrasodium salt (26.0 Ci/mmol) (manufactured by New England Nuclear). PEP was used as a test reagent, and pyruvic acid was used as a negative control. Five minutes before the addition of ATP, PEP or pyruvic acid, as a solution in 20 mM MOPS-tris (pH 7.0), 0.3 M sucrose, 5 mM potassium chloride, and 5 mM magnesium acetate, was added to the measurement liquid to a final PEP concentration of 0.02, 0.05, 0.1, 0.2, 0.4, or 1 mM, or to a final pyruvic acid concentration of 0.5 or 1 mM.
as §2

Assay [2] deals with T1, V-ATPase (Bos taurus, UniProt P31404).
T1 construct: from tissue; host or cells: bovine adrenal medulla chromaffin granule membranes
T1 sequence (P31404 whole entry, looked up): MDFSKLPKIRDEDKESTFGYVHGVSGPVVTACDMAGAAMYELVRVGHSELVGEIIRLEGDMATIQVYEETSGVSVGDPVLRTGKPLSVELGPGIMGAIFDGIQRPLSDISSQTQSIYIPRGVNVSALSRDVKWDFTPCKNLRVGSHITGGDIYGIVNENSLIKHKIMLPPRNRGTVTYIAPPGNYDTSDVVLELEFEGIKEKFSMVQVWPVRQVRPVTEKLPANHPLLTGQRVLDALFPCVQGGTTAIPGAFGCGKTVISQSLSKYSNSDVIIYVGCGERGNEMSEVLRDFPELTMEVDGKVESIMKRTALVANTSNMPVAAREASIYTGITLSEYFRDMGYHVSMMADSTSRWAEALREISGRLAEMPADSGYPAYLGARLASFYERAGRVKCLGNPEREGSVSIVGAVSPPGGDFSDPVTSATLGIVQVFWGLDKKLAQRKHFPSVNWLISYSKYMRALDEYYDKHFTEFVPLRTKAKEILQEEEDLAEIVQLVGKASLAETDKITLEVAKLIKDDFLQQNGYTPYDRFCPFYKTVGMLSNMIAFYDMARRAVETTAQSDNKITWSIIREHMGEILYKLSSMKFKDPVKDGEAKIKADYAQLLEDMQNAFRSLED
The experiment in a line: ATP-dependent proton transport by V-ATPase (acridine orange / oxonol-V fluorescence quenching). It is filed as biochemical, bovine. As to the method: as §1
ATP-dependent proton transport by V-ATPase was measured according to Reference B. Proton transport activity was measured using a spectrofluorometer at excitation wavelength of 492 nm and a fluorescence wavelength 540 nm, wherein fluorescence quenching of acridine orange was used as an index (N = 2). The transmembrane potential generated was measured using a spectrofluorometer at an excitation wavelength of 580 nm and a fluorescence wavelength of 630 nm, wherein fluorescence quenching of oxonol-V was used as an index (N = 2). The acridine measurement liquid (2 ml) contained 20 mM MOPS-tris (pH 7.0), 0.2 M sucrose, 0.1 M potassium chloride, 5 mM magnesium acetate, 0.2 µg valinomycin, 2 µM acridine orange, and about 20 µg of chromaffin granules. The oxonol-V measurement liquid (2 ml) contained 20 mM MOPS-tris (pH 7.0), 0.3 M sucrose, 5 mM magnesium acetate, 5 µM oxonol-V, and about 20 µg of chromaffin granules.
as §2

The test system of assay [3] is ATP transport activity in isolated chromaffin granule membranes. The experiment in a line: ATP transport (3H-ATP uptake) in chromaffin granule membrane vesicles. It is filed as biochemical, bovine. The settings on record: MANT-ATP; N = 3.
For assay [4], the target named is V-ATPase (Homo sapiens, UniProt P38606). The experiment in a line: Inhibitory effect on V-ATPase (data not shown). In kind it is biochemical.
V-ATPase (Homo sapiens, UniProt P38606), sequence (P38606 whole entry): as the sequence (P31404 whole entry, looked up) above, with R10L, V131I, N157S, I199V, S204T, E576D, V590L, A599S counted along it
In the next assay the target is T2, VNUT (Homo sapiens, UniProt Q9BYT1).
T2 sequence (Q9BYT1 1-436): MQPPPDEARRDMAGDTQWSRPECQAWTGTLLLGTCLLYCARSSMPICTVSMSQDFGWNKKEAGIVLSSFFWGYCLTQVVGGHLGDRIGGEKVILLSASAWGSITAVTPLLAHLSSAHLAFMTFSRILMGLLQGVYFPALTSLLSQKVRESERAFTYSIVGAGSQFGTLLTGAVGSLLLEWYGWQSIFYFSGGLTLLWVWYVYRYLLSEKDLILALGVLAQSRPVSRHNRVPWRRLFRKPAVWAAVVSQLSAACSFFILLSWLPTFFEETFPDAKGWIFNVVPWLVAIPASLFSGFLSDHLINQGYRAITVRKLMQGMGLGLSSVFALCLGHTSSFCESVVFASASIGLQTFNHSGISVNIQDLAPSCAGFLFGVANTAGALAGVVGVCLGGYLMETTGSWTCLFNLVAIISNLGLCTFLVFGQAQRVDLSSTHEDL
The experiment in a line: Inhibitory effect on VNUT (data not shown). It is filed as biochemical.

Assay [5] relates to human epidermal keratinocytes. The experiment in a line: ATP secretion promoted by ionomycin in keratinocytes. The settings on record: 0.1 µM, 6 hours incubation, N = 3. It is filed as cell-based. As to the method: Human epidermal keratinocytes (Cryopreserved HEK, Lot 1758, Cell Applications Inc.) were cultured using an Epivita Keratinocyte Growth Medium Kit according to the manufacturer's instructions. The procedure was as follows. A supplement medium was added to a hydrocortisone-containing basal medium included in the medium preparation kit to prepare a complete medium. The medium in the dish was removed by aspiration. The cells were washed with 5 ml of BSS (Gbco), and then the BSS was removed by aspiration. After addition of 5 to 6 ml of trypsin/EDTA solution (Gbco), the dish was incubated at 37°C for 2 minutes. After addition of 5 ml of trypsin neutralization solution, the resulting cell suspension was transferred into two 15-ml Falcon tubes, and centrifuged at 200 × g for 5 minutes. The supernatant was removed by aspiration, and the pelleted cell cluster was suspended in 2 ml of the medium at 4.5 × 10^5 cells/ml. An aliquot of the resulting cell suspension was cryopreserved, while another aliquot was cultured and subjected to measurement.
ATP secretion by human epidermal keratinocytes (hereinafter referred to as "keratinocytes") was measured. Regarding control solutions, Krebs-Ringer HEPES supplemented with 0.2% BSA and 25 mM glucose (hereinafter also referred to as "Krebs/Iono(-)") was used as a negative control, and a solution prepared by adding 5 µM ionomycin to this solution (hereinafter also referred to as "Krebs/Iono(+)") was used as a positive control for ATP secretion. Ionomycin is a Ca^2+ ionophore. Addition of ionomycin to cells is known to promote influx of extracellular Ca^2+ into the cells to increase the intracellular Ca^2+ concentration, resulting in enhancement of ATP secretion. Test solutions were prepared by adding clodronate to Krebs/Iono(-) or Krebs/Iono(+) to a final concentration of 0.1 µM (hereinafter also referred to as "Clo/Iono(-)" or "Clo/Iono(+)", respectively) (N = 3).
Keratinocytes were cultured at 2.5 × 10^4 cells/well in a 24-well plate at 37°C in 5% CO2 for 4 days. The medium was removed by aspiration, replaced with Krebs/Iono(-) or Clo/Iono(-), and incubated at 37°C for 6 hours. These solutions were then removed by aspiration, and the content of each well incubated with Krebs/Iono(-) was replaced with 300 µl of a control solution (Krebs/Iono(-) or Krebs/Iono(+)), while the content of each well incubated with Clo/Iono(-) was replaced with 300 µl of a test solution (Clo/Iono(-) or Clo/Iono(+)). After further incubation at 37°C for 20 minutes, 200 µl of the supernatant was collected. The collected supernatant was immediately treated on a heat block at 95°C for 10 minutes, to inactivate ectonucleotidase. ATP in the supernatant was quantified using a Dojindo ATP assay kit - Luminescence (manufactured by Dojindo Laboratories).
After culturing keratinocytes, the medium was removed by aspiration, and replaced with Krebs/Iono(-), or Krebs/Iono(-) supplemented with 10 µM imeglimin, 0.1 µM EPA, 1 µM EPA, or 10 µM clodronate, followed by incubation for 6 hours. Subsequently, the solution was replaced with either a control solution (Krebs/Iono(-) or Krebs/Iono(+)) or a test solution (Krebs/Iono(+) supplemented with 10 µM imeglimin, 0.1 µM EPA, 1 µM EPA, or 10 µM clodronate), followed by incubation at 37°C for 20 minutes and then collection of 200 µl of the supernatant. The collected supernatant was immediately treated on a heat block at 95°C for 10 minutes to inactivate ectonucleotidase. ATP in the supernatant was quantified using a Dojindo ATP assay kit - Luminescence (manufactured by Dojindo Laboratories).
Keratinocytes were cultured in the same manner as in Example 1, and the medium was replaced with Krebs/Iono(-), Krebs/Iono(-) supplemented with 0.1 µM, 1 µM, or 10 µM imeglimin, or Krebs/Iono(-) supplemented with 0.1 µM, 1 µM, or 10 µM metformin, followed by incubation for 6 hours. […]

Assay [6] has as its system human epidermal keratinocytes. The experiment in a line: LPS-stimulated ATP secretion in keratinocytes. In kind it is cell-based. The settings on record: 10 µM; 18 hours incubation, LPS 10 µg/ml 10 minutes; N = 8. Here is the method:
Keratinocytes were cultured in the same manner as in Example 1. Keratinocytes were cultured at 2.5 × 10^4 cells/well in a 24-well plate at 37°C in 5% CO2 for 4 days. The medium was replaced with a test solution (Hanks' balanced salt solution (HBSS) (manufactured by Gibco) supplemented with imeglimin, metformin, or clodronate), and then incubation was performed at 37°C in 5% CO2 for 18 hours. Thereafter, LPS (10 µg/ml) was added thereto, and incubation was further carried out for 10 minutes, followed by collection of 200 µl of the supernatant. The supernatant was immediately treated on a heat block at 95°C for 10 minutes, and ATP in the supernatant was quantified using an ATP Assay Kit - Luminescence (manufactured by Dojindo) (N = 8).

Where a name gives a salt, the structure may show the parent alone.

On to `CNc1ccccc1C(=O)O[C@H]1[C@@H](O)[C@H](n2cnc3c(N)ncnc32)O[C@@H]1COP(=O)(O)OP(=O)(O)OP(=O)(O)O` [MANT-ATP, 2'/3'-O-(N-methyl-anthraniloyl)-adenosine-5'-triphosphate triethylammonium salt], for which the “effect on the catecholamine transport system” value in the assay with catecholamine transport is “hardly affected”. The “ID50 of ATP transport” value in assay [1] is “about 30 mM”. Moreover, the “quenching of acridine orange fluorescence with MANT-ATP as substrate” value at V-ATPase [2] (addition of 0.1mM MANT-ATP, before addition of ATP) was 34%. For the same compound, the “effect on ATP-dependent proton transport by V-ATPase” value at V-ATPase [2] (concentrations of up to 100 µM, N = 1) is recorded as “did not affect”. Also, the “inhibition of ATP transport” value in assay [3] was “strongly inhibited ATP transport”.
In the case of `CN(C)C(=N)N=C(N)N` [metformin], the “inhibitory effect on V-ATPase” value on V-ATPase [4] is “neither imeglimin nor metformin exhibited a strong inhibitory effect”. The “inhibitory effect on VNUT” value against VNUT is given as “neither imeglimin nor metformin exhibited a strong inhibitory effect”. In addition, the “ATP secretion inhibitory effect, comparison and concentration dependence” value in assay [5] (1 µM, 10 µM) was “decreased inhibitory effect at higher concentrations”. Also, in assay [5], the “ATP secretion inhibitory effect” value is “exhibit an ATP secretion inhibitory effect”. The “ATP secretion upon LPS stimulation” value in assay [6] is “almost completely inhibited”.
